Our source for the TGI and GI50 values is PubChem BioAssay (NCI).

“And” between values parts separate entries of the source, which are not always exact repeats. Identical values can stand only once.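 Grown in 96-well plates, cells were treated for 48 hours with each compound at five concentrations. Insufficient inhibition: endpoint recorded as highest concentration tested. GI50: concentration for 50% inhibition of growth. TGI: concentration producing complete growth inhibition.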

Among the test systems are A498 renal; SR leukemia; NCI-H460 lung; HL-60(TB) leukemia; UACC-257 melanoma; SF-539 CNS; OVCAR-5 ovarian; MALME-3M melanoma.
What all share (test): inhibition of tumour cell growth, NCI panel, 48 h

Turning to `O=c1[nH]c2ccccc2cc1C(Cl)=C(Cl)Cl`, the TGI in the test with A498 renal, in the test on SR leukemia, in the test with NCI-H460 lung, in the test on HL-60(TB) leukemia, in the test with UACC-257 melanoma and in the test with SF-539 CNS was greater than 100 µM in each case. In addition, the TGI with OVCAR-5 ovarian and in the test with MALME-3M melanoma was greater than 100 µM each time.

As for `O=C1CCCN(c2ccccc2)N1`, the TGI in the test on A498 renal, in the test on SR leukemia, with NCI-H460 lung, with HL-60(TB) leukemia, with UACC-257 melanoma and in the test on SF-539 CNS was greater than 100 µM in each case. Moreover, the TGI in the test with OVCAR-5 ovarian and in the test on MALME-3M melanoma was greater than 100 µM each time.

As for `CCOC(=O)C1(CC)CCCCC(=O)N1` (stereo not drawn), the TGI with NCI-H460 lung, in the test with HL-60(TB) leukemia and in the test on MALME-3M melanoma was greater than 100 µM throughout.

In the case of `CCOC(=O)CC1=Nc2ccccc2SC1`, the TGI in the test with A498 renal, in the test with NCI-H460 lung, in the test on UACC-257 melanoma, with SF-539 CNS, in the test with OVCAR-5 ovarian and in the test with MALME-3M melanoma was greater than 100 µM throughout.

Take `Cc1ccc(-c2c(N)nc(NC#N)nc2CCC(=O)Nc2ccccc2[N+](=O)[O-])cc1`: the TGI in the test with A498 renal, in the test with SR leukemia, with NCI-H460 lung, with HL-60(TB) leukemia, in the test with UACC-257 melanoma and in the test with SF-539 CNS was greater than 100 µM in each case. Further, the TGI in the test with OVCAR-5 ovarian and in the test on MALME-3M melanoma was greater than 100 µM in each case.

As for `C#CCNC(=O)NC(CCCNC(=O)OCc1ccccc1)C(=O)OCc1ccccc1` (stereo not drawn), the TGI was greater than 100 µM in the test on A498 renal; greater than 100 µM with SR leukemia; greater than 100 µM in the test on NCI-H460 lung; 59.3 µM in the test with HL-60(TB) leukemia; 93.3 µM in the test on UACC-257 melanoma; greater than 100 µM in the test with SF-539 CNS. The TGI with OVCAR-5 ovarian and in the test on MALME-3M melanoma was greater than 100 µM throughout.

As for `CCCCCCCCCCCCC(=O)OC(c1cnco1)c1nc(C(O)CC(O)C(O)C(C)O)co1` (stereo not drawn), the TGI in the test on A498 renal is greater than 100 µM; in the test on SR leukemia it was 2.5 µM; in the test on NCI-H460 lung, greater than 37 µM; with HL-60(TB) leukemia, 25.4 µM; in the test on UACC-257 melanoma, greater than 83 µM; in the test with SF-539 CNS, greater than 100 µM. For the same compound, the TGI in the test on OVCAR-5 ovarian and with MALME-3M melanoma was greater than 100 µM throughout. Besides, the GI50 was 0.337 µM with SR leukemia; 0.443 µM in the test on NCI-H460 lung; 0.544 µM in the test with HL-60(TB) leukemia; 5.16 µM in the test with UACC-257 melanoma; 3.73 µM in the test with SF-539 CNS; 3.61 µM in the test on MALME-3M melanoma.

In the case of `O=C1NC(c2ccc(O)cc2)C2CCC1C2` (stereo not drawn), the TGI in the test with A498 renal, with SR leukemia, with NCI-H460 lung, in the test on HL-60(TB) leukemia, with UACC-257 melanoma and in the test with OVCAR-5 ovarian was greater than 100 µM throughout. The same compound registered a TGI with MALME-3M melanoma greater than 100 µM.

On to `O=C1NC2(CCCC2)C(=O)C12CCCC2`, for which the TGI with A498 renal, with SR leukemia, in the test with NCI-H460 lung, in the test on HL-60(TB) leukemia, in the test with UACC-257 melanoma and with SF-539 CNS was greater than 100 µM in each case. Besides, the TGI in the test with OVCAR-5 ovarian and in the test on MALME-3M melanoma was greater than 100 µM in each case.

For `CC(=O)OC1=C2CC3(C)OC(=O)CC(C)(C)C3=CC=C2C=C(C(C)C)C1=O` (stereo not drawn), the TGI in the test with A498 renal came out at 2.99 µM; in the test with SR leukemia it was 1.01 µM; in the test on NCI-H460 lung it was 3.31 µM; in the test on HL-60(TB) leukemia, 0.888 µM; with UACC-257 melanoma it was 1.1 µM; in the test with OVCAR-5 ovarian, 2.24 µM. This compound came in with a TGI in the test on MALME-3M melanoma of 1.17 µM.

For the compound `CCOC(=O)C1=C(C)Nc2ccccc2S1`, the TGI in the test with A498 renal, with SR leukemia, with NCI-H460 lung, in the test on UACC-257 melanoma, with SF-539 CNS and in the test with OVCAR-5 ovarian was greater than 100 µM throughout. The TGI in the test with MALME-3M melanoma is greater than 100 µM.

Take `C=CCSC[C@H](NC(=O)COc1ccccc1)C(=O)NC(C(=O)OCc1ccc([N+](=O)[O-])cc1)=C(C)C`: the TGI in the test on A498 renal, in the test on NCI-H460 lung, with HL-60(TB) leukemia, in the test on UACC-257 melanoma and in the test on MALME-3M melanoma was greater than 100 µM each time.

`COC(=O)C(C#N)=C1c2ccccc2Oc2ccccc21`: the TGI in the test on A498 renal was greater than 100 µM; in the test on NCI-H460 lung it was greater than 100 µM; with HL-60(TB) leukemia, 56.4 µM; in the test with UACC-257 melanoma, greater than 100 µM; with SF-539 CNS, greater than 100 µM; with OVCAR-5 ovarian it was greater than 100 µM. Further, the TGI with MALME-3M melanoma was greater than 100 µM.

Take `FC(F)(F)c1nc(-c2ccccc2Cl)[nH]c1C(F)(F)F`: the TGI came out at 1.68 µM in the test on SR leukemia; 4.17 µM in the test on NCI-H460 lung; 1.22 µM in the test on HL-60(TB) leukemia; 2.2 µM in the test on UACC-257 melanoma; 4.48 µM in the test on SF-539 CNS; 2.75 µM in the test on MALME-3M melanoma.

`C1COCCN1.C1COCCN1.N.N.[Cl-].[Pt+2]`: the GI50 in the test with SR leukemia, with NCI-H460 lung, with SF-539 CNS, in the test with OVCAR-5 ovarian and with MALME-3M melanoma was greater than 100 µM in each case. For the same compound, the TGI in the test on SR leukemia, with NCI-H460 lung, with SF-539 CNS, in the test on OVCAR-5 ovarian and in the test on MALME-3M melanoma was greater than 100 µM each time.

As to `CC(=O)[CH-]C(=O)c1ccccc1.CC(=O)[CH-]C(=O)c1ccccc1.CCCCCCCCCCCCCCCCCC(=O)[O-].CCCCCCCCCCCCCCCCCC(=O)[O-].[Ti+4]`, the GI50 with A498 renal was 25.7 µM; in the test on NCI-H460 lung it was 30.7 µM; with HL-60(TB) leukemia, 19.3 µM; in the test with UACC-257 melanoma it was 24.6 µM; in the test on SF-539 CNS, 17.2 µM; with OVCAR-5 ovarian, 36.7 µM. In the test with MALME-3M melanoma, the GI50 was 36.7 µM. Also, the TGI in the test with A498 renal was 68.5 µM; with NCI-H460 lung, 95.7 µM; with HL-60(TB) leukemia, 43.9 µM; in the test with UACC-257 melanoma it was 68.5 µM; in the test with SF-539 CNS, 31.3 µM; in the test with OVCAR-5 ovarian it was greater than 100 µM. In the test on MALME-3M melanoma, this compound came in with a TGI greater than 100 µM.

As for `COc1ccc2cc1Oc1ccc(cc1)C[C@H]1c3cc(c(OC)cc3CCN1C)Oc1c(OC)c(OC)cc3c1[C@H](C2)N(C)CC3`, the GI50 is 5.98 µM with A498 renal, 0.0282 µM with SR leukemia, 4.06 µM with UACC-257 melanoma and 2.03 µM in the test on SF-539 CNS. Moreover, the TGI with A498 renal was 13.2 µM and 19.2 µM and > 100 µM; in the test with NCI-H460 lung it was 14.5 µM; in the test with HL-60(TB) leukemia, 16.1 µM and 23.8 µM and > 100 µM; in the test with UACC-257 melanoma, 11.4 µM and 14.6 µM and > 100 µM.

For the compound `CSC1=NC=CCN1C`, the TGI with A498 renal, in the test on NCI-H460 lung, in the test with HL-60(TB) leukemia, in the test on UACC-257 melanoma, with OVCAR-5 ovarian and in the test on MALME-3M melanoma was greater than 100 µM in each case.

`COc1cc2c(c3c1C=CCO3)C(=O)c1ccccc1C2=O`: the TGI was greater than 100 µM with SR leukemia; greater than 100 µM in the test with NCI-H460 lung; 57.7 µM in the test with HL-60(TB) leukemia; 68.9 µM in the test on UACC-257 melanoma; greater than 100 µM in the test on SF-539 CNS; greater than 100 µM in the test on OVCAR-5 ovarian. The same compound yielded a TGI in the test with MALME-3M melanoma greater than 100 µM.

As to `Cn1cc(NC(=O)c2cc(NC(=O)CCCCCCCCCCC(=O)Nc3cc(C(=O)Nc4cc(C(=O)NCCC(=N)N)n(C)c4)n(C)c3)cn2C)cc1C(=O)NCCC(=N)N`, the TGI in the test with NCI-H460 lung, with UACC-257 melanoma, in the test with SF-539 CNS and in the test on OVCAR-5 ovarian was greater than 100 µM in each case.

In the case of `O=C(C#Cc1c[nH]c(=O)[nH]c1=O)c1ccccc1Cl`, the TGI was found to be 36.3 µM with A498 renal; 67.7 µM in the test with NCI-H460 lung; 48.1 µM in the test with HL-60(TB) leukemia; 27.9 µM with UACC-257 melanoma; 30 µM in the test with SF-539 CNS; 34 µM in the test on OVCAR-5 ovarian. Further, the TGI with MALME-3M melanoma worked out at 32.1 µM.

`COC1O[C@H]2CCN(C(=O)OCc3ccccc3)[C@H]2[C@H]1OCc1ccccc1` (stereo partly drawn): the TGI with A498 renal is greater than 100 µM; in the test with SR leukemia it was 99.7 µM; with NCI-H460 lung it was greater than 100 µM; in the test with HL-60(TB) leukemia it was 68.6 µM; in the test with UACC-257 melanoma, greater than 100 µM; in the test on SF-539 CNS, greater than 100 µM. Moreover, the TGI in the test on OVCAR-5 ovarian and in the test with MALME-3M melanoma was greater than 100 µM throughout.

Regarding `Cc1cc2c(cc1C)[n+](=O)c(C(=O)C/C(=N/NC(=O)c1ccccc1O)C(=O)Nc1ccccc1C(C)C)c(C)n2[O-]`, the TGI with A498 renal is greater than 100 µM; in the test with NCI-H460 lung, greater than 100 µM; in the test on HL-60(TB) leukemia, 37.9 µM; in the test with UACC-257 melanoma, greater than 100 µM; in the test on SF-539 CNS, greater than 100 µM; in the test on OVCAR-5 ovarian it was greater than 100 µM. In addition, the TGI with MALME-3M melanoma was greater than 100 µM.

`O=[N+]([O-])[C@@H]1C2C=CC(C2)[C@H]1Cl` (stereo partly drawn): the TGI with A498 renal, with SR leukemia, in the test with NCI-H460 lung, in the test with HL-60(TB) leukemia, in the test on UACC-257 melanoma and in the test with SF-539 CNS was greater than 100 µM in each case. In addition, the TGI in the test on OVCAR-5 ovarian and with MALME-3M melanoma was greater than 100 µM throughout.

For the compound `Cc1ccccc1C(C#N)C(=O)C(=O)Nc1nc([N+](=O)[O-])cs1` (stereo not drawn), the TGI with A498 renal, in the test on NCI-H460 lung, with HL-60(TB) leukemia, in the test on UACC-257 melanoma, in the test on SF-539 CNS and in the test with OVCAR-5 ovarian was greater than 100 µM each time. Further, the TGI in the test on MALME-3M melanoma is greater than 100 µM.
